Where “and” joins values, the source holds several entries; their conditions need not be identical. Identical values can stand only once.
How the values were obtained:
Flt3(h) = Flt3(h) (Homo sapiens, UniProt P36888); assay: Kinase selectivity panel (residual activity at 1 μM); type: biochemical; conditions: inhibitor at 1 μM; read-out: residual kinase activity in % of maximal activity
GSK3α(h) = GSK3α(h) (Homo sapiens, UniProt P49840); assay: as above; type: biochemical; conditions: inhibitor at 1 μM; read-out: residual kinase activity in % of maximal activity
Sequence of GSK3α(h) (P49840 whole entry): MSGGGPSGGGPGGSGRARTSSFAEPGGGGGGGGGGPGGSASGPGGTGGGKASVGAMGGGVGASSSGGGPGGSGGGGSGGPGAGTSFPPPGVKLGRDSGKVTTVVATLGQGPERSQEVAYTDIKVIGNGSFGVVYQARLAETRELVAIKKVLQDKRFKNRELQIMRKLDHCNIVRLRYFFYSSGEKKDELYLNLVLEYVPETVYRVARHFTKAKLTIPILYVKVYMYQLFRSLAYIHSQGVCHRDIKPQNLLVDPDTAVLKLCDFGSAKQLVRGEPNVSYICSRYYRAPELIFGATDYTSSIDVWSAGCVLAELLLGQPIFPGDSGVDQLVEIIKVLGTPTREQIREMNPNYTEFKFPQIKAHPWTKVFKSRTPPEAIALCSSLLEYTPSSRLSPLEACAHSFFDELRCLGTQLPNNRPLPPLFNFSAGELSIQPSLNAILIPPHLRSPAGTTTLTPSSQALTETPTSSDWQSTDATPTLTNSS

IGF-1R(h) = IGF-1R(h) (Homo sapiens, UniProt P08069); assay: as above; type: biochemical; conditions: inhibitor at 1 μM; read-out: residual kinase activity in % of maximal activity
Sequence of IGF-1R(h) (P08069 31-1367): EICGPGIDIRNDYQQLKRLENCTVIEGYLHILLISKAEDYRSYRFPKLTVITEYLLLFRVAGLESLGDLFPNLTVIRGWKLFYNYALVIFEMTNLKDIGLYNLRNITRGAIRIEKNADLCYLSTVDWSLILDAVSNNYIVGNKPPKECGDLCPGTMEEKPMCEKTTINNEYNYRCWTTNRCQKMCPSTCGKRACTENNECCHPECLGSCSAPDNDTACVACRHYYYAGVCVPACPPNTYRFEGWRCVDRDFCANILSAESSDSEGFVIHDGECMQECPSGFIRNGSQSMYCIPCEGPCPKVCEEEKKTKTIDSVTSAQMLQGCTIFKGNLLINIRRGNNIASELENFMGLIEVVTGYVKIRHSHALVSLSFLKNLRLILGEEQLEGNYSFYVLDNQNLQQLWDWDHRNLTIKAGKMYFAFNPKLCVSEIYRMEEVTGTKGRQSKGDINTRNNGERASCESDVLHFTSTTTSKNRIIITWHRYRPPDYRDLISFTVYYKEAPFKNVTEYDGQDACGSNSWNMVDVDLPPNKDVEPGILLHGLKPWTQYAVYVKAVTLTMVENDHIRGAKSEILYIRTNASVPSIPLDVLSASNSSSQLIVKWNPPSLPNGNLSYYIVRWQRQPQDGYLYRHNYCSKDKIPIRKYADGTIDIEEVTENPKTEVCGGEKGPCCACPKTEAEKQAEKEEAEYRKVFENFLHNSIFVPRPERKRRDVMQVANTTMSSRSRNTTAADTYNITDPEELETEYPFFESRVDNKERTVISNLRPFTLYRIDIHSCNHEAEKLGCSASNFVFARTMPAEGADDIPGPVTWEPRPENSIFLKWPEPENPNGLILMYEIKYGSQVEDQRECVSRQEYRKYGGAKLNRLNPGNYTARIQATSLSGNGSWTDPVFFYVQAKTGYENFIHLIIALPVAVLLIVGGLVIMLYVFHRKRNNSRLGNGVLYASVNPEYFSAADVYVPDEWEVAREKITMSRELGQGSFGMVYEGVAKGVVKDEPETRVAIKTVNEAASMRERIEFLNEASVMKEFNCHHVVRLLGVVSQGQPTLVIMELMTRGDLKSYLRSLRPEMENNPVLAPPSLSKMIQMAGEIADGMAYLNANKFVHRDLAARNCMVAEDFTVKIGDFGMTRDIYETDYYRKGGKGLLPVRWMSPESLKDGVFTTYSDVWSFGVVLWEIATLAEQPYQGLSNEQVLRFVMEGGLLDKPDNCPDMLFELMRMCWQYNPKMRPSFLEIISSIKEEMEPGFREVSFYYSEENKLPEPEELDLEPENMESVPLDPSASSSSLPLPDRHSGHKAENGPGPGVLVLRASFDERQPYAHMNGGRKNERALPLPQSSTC

MAPK1(h) = MAPK1(h) (Homo sapiens, UniProt P27361); assay: as above; type: biochemical; conditions: inhibitor at 1 μM; read-out: residual kinase activity in % of maximal activity
Sequence of MAPK1(h) (P27361 whole entry): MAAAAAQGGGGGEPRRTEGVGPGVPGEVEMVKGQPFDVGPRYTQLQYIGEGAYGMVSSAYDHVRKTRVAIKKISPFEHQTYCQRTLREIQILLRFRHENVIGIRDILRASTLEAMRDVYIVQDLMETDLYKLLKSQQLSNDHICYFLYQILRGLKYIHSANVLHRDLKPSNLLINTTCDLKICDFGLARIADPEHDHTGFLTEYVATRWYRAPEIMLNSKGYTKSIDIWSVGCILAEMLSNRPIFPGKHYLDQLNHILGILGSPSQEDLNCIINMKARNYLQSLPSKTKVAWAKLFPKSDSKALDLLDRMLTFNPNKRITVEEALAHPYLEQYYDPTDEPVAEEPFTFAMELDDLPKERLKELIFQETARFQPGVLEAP

p70S6K(h) = p70S6K(h) (Homo sapiens, UniProt P23443); assay: as above; type: biochemical; conditions: inhibitor at 1 μM; read-out: residual kinase activity in % of maximal activity
Sequence of p70S6K(h) (P23443 whole entry): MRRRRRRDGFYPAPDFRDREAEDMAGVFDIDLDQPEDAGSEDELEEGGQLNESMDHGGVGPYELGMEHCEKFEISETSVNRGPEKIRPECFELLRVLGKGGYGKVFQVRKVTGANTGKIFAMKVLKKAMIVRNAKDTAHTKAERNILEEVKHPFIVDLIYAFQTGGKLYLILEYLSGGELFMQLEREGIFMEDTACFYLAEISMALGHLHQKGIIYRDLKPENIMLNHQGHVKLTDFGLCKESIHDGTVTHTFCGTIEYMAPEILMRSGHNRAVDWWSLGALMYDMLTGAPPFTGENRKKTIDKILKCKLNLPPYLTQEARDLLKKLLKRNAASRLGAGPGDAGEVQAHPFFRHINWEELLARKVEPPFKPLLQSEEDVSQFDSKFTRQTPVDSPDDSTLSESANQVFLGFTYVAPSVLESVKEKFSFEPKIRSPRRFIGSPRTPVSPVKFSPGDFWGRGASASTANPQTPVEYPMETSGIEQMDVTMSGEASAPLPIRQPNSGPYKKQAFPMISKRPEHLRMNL

PAK2(h) = PAK2(h) (Homo sapiens, UniProt Q13177); assay: as above; type: biochemical; conditions: inhibitor at 1 μM; read-out: residual kinase activity in % of maximal activity
Sequence of PAK2(h) (Q13177 whole entry): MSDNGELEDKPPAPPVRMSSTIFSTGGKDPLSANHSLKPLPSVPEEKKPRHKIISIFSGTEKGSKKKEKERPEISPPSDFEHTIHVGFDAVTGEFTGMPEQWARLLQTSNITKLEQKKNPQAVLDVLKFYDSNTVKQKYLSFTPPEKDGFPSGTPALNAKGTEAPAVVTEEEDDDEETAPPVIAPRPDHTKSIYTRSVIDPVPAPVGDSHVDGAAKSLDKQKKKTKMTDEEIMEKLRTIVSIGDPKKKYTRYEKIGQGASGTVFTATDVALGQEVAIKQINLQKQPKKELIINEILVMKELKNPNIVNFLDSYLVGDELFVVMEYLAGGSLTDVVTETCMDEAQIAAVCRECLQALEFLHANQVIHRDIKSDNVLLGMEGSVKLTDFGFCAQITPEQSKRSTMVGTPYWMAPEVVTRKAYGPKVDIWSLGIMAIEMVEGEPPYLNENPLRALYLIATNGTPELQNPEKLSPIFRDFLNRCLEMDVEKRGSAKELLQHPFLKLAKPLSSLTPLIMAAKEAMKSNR

PDGFRβ(h) = PDGFRβ(h) (Homo sapiens, UniProt P09619); assay: as above; type: biochemical; conditions: inhibitor at 1 μM; read-out: residual kinase activity in % of maximal activity
PKBγ(h) = PKBγ(h) (Homo sapiens, UniProt Q9Y243); assay: as above; type: biochemical; conditions: inhibitor at 1 μM; read-out: residual kinase activity in % of maximal activity
Sequence of PKBγ(h) (Q9Y243 whole entry): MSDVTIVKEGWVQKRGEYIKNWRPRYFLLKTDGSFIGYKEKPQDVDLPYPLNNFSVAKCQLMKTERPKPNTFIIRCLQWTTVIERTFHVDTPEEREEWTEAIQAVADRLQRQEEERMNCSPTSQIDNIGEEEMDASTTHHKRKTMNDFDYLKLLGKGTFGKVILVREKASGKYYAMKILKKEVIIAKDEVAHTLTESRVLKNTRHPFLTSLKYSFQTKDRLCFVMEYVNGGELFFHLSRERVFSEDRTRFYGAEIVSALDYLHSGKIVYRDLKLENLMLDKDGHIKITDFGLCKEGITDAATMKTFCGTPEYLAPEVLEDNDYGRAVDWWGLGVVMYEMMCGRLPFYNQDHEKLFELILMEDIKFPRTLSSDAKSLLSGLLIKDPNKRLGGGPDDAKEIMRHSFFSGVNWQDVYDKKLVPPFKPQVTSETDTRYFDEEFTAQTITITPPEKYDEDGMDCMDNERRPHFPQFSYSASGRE

[1] = target: GFP–CaMKII WT / mCh-GluN2B-c tail in HEK293 cells (Homo sapiens, UniProt Q9UQM7); assay: Ionomycin-induced colocalization of GFP–CaMKII WT and mCherry-2BC in HEK293 cells; type: cell-based; conditions: 10 μM AS283
Method: HEK cells were grown and transfected with expression vectors for GFP–CaMKII mutants and pDisplay-mCh-GluN2B-c tail (2BC) as previously described[24],[57]; the GluN2B construct used included an S1303A mutation to avoid potential complications by differential phosphorylation of this regulatory site[13],[27] in the different conditions with or without kinase inhibitors. GFP–CaMKII colocalization with GluN2B in response to a Ca^2+ stimulus induced by 10 μM ionomycin was monitored for 5–10 min at 32 °C in imaging buffer (0.87× Hanks Balanced Salt Solution, 25 mM HEPES, pH 7.4, 2 mM glucose, 2 mM CaCl2, 1 mM MgCl2) by fluorescence microscopy. Images were acquired on a Zeiss Axiovert 200M equipped with a climate control chamber using SlideBook software (Intelligent Imaging Innovations; v.6.0). Colocalization analysis was performed by calculating the Pearson’s correlation (correlation index) with ImageJ of pDisplay-mCh-2BC and GFP–CaMKII within the cytoplasm of HEK cells after background subtraction.

[2] = system: GFP–CaMKII in rat hippocampal neurons; assay: cLTP-induced CaMKII synaptic enrichment in dissociated hippocampal cultures (GFP–CaMKII WT); type: cell-based; conditions: for CaMKII synaptic enrichment: GFP-CaMKII WT, individual neurons, sheet 4e
CaMKIIα WT = CaMKIIα WT (Homo sapiens, UniProt Q9UQM7); assay: In vitro kinase reactions with CaMKII WT ± NM-PP1 (pT286, pS831); type: biochemical
Method: Fig. 4 The CaMKII mutation F89G impairs ATP binding but binds the ATP-competitive inhibitor NM-PP1 that restores GluN2B binding and LTP-induced synaptic translocation. Data are presented as mean values ± s.e.m. a, Schematic of the pharmacogenetic method of ATP-competitive CaMKII inhibition; enlargement of the CaMKII ATP-binding pocket by the F89G mutation allows for selective binding of the ATP-competitive inhibitor NM-PP1. b, Immunoblots of in vitro kinase reactions at 30 °C including GFP–CaMKII WT, K42M and F89G with GST–GluA1-c tail. […] Correlation indices were measured before and after Ionomycin-induced colocalization of GFP–CaMKII (WT, K42M and F89G) with mCherry-2BC, represented as change in the correlation index (vehicle: n = 22, 17, 12 cells; NM-PP1: n = 20, 24, 13 cells; one-way ANOVA, Tukey’s multiple comparisons test). […] CaMKII synaptic enrichment was measured before and after cLTP (n = 13, 14, 14 cells; RM two-way ANOVA with Šídák’s multiple comparisons test). […] CaMKII synaptic enrichment was measured before and after cLTP (n = 7, 6, 7 cells; RM two-way ANOVA with Šídák’s multiple comparisons test). […]
CaMKII-mediated phosphorylation of GluA1 S831 or GluN2B S1303 was measured by in vitro kinase reaction with a purified GST–GluA1 C-terminal tail or GST-GluN2B C-terminal tail. […]

Sequence of Flt3(h) (P36888 27-993): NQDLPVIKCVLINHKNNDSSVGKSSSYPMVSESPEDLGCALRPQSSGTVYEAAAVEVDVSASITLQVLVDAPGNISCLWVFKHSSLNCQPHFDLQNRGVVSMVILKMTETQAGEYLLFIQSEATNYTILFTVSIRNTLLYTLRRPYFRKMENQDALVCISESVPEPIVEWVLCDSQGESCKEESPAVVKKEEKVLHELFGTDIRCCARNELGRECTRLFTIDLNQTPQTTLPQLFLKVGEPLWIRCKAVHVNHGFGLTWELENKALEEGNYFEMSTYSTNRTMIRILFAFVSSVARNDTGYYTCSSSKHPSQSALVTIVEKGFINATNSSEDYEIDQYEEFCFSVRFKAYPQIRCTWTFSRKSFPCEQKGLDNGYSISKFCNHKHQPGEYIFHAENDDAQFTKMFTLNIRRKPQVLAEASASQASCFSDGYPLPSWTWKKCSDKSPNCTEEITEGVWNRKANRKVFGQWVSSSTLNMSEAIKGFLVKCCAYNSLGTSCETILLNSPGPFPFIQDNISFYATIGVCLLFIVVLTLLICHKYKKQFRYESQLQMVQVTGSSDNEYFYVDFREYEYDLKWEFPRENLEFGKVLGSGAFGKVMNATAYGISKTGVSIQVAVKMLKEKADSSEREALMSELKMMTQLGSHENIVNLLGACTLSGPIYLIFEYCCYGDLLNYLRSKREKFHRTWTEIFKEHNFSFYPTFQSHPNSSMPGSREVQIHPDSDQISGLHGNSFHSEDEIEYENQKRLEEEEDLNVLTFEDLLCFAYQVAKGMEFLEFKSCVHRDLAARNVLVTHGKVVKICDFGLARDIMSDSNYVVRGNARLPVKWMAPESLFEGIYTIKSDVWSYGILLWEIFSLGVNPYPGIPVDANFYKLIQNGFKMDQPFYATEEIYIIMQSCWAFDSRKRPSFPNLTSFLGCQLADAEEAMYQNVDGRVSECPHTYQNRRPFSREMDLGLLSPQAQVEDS

SMILES | remaining activity at 1 µM (Flt3(h)) [%] | remaining activity at 1 µM (GSK3α(h)) [%] | remaining activity at 1 µM (IGF-1R(h)) [%] | remaining activity at 1 µM (MAPK1(h)) [%] | remaining activity at 1 µM (p70S6K(h)) [%] | remaining activity at 1 µM (PAK2(h)) [%] | remaining activity at 1 µM (PDGFRβ(h)) [%] | remaining activity at 1 µM (PKBγ(h)) [%] | effect on CaMKII binding to GluN2B in colocalization assay [1] | effect on CaMKII movement to excitatory synapses in response to cLTP ([2]; AS283) | CaMKII synaptic enrichment ([2]; NMPP1, before cLTP) | CaMKII synaptic enrichment ([2]; after cLTP in NMPP1) | effect on pT286 for CaMKII WT (CaMKIIα WT)
NCCNc1cccc(-c2ccnc3[nH]c4ccccc4c23)c1 [AS283] | 3 | 82 | 110 | 102 | 18 | 76 | 111 | 42 | did not inhibit | did not interfere |  |  | 
CC(C)(C)n1nc(Cc2cccc3ccccc23)c2c(N)ncnc21 [NM-PP1] |  |  |  |  |  |  |  |  |  |  | 1.457 and 1.288 and 1.299 and 1.252 and 1.168 and 1.649 | 2.238 and 1.828 and 2.413 and 1.827 and 1.651 and 2.282 | did not affect

Reference: PMC10482691, “LTP induction by structural rather than enzymatic functions of CaMKII” (Nature, 2023)
